Results taken from PubChem BioAssay (NCI).
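Where inhibition never reached the appropriate level, the endpoint shown equals the highest concentration tested. Otherwise, values were interpolated linearly from a five-concentration, 48-hour dose response in 96-well plates. GI50 is the concentration that inhibits growth by half. TGI marks complete inhibition of growth.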

Legend:
Experiment in all cases: DTP human tumour cell line panel, 48 h
NCI-H226 lung = test system: NCI-H226 lung
UACC-62 melanoma = test system: UACC-62 melanoma
M19-MEL melanoma = test system: M19-MEL melanoma
HOP-62 NSCLC = test system: HOP-62 NSCLC
BT-549 breast = test system: BT-549 breast
SK-MEL-28 melanoma = test system: SK-MEL-28 melanoma
OVCAR-3 ovarian = test system: OVCAR-3 ovarian
ACHN renal = test system: ACHN renal
SNB-78 CNS = test system: SNB-78 CNS
SW-620 colon = test system: SW-620 colon

Structure (SMILES)	TGI (NCI-H226 lung)	GI50 (UACC-62 melanoma)	TGI (M19-MEL melanoma)	TGI (HOP-62 NSCLC)	GI50 (BT-549 breast)	TGI (BT-549 breast)	GI50 (SK-MEL-28 melanoma)	TGI (OVCAR-3 ovarian)	GI50 (ACHN renal)	TGI (ACHN renal)	TGI (SNB-78 CNS)	GI50 (SW-620 colon)	TGI (SW-620 colon)	TGI (UACC-62 melanoma)	TGI (SK-MEL-28 melanoma)	GI50 (OVCAR-3 ovarian)
COC1/C=C\C=C(/C)C(=O)Nc2cc3nc4ccc(Br)cc4oc-3c(c2=O)CC(C)CC(OC)C(O)C(C)/C=C(\C)C1OC(N)=O (centres undefined)	17.7 µM	0.00162 µM	2.26 µM	21.2 µM	10.1 µM	22.6 µM	0.000391 µM	3.84 µM	0.00459 µM	15.6 µM	30 µM	0.000996 µM	2.75 µM	–	–	–
OCC(O)C(O)C(O)C1SC(c2ccccc2)=NN1c1ccccc1 (centres undefined)	> 100 µM	–	> 100 µM	> 100 µM	–	> 100 µM	–	> 87.6 µM	–	> 83 µM	> 96.4 µM	–	> 100 µM	74.2 µM	> 100 µM	–
CCCCCCCCCCC(C)CCCCCCC(=O)OCC(COP(=O)([O-])OCC[N+](C)(C)C)OC(=O)CCCCCCC(C)CCCCCCCCCC (centres undefined)	> 100 µM	–	> 100 µM	> 100 µM	–	–	–	> 100 µM	–	> 100 µM	> 100 µM	–	> 100 µM	> 100 µM	> 100 µM	–
C1CNCCNCCNCCN1	> 100 µM	–	> 100 µM	> 100 µM	–	–	–	> 100 µM	–	> 100 µM	> 100 µM	–	> 100 µM	> 100 µM	> 100 µM	–
Clc1ccc(-n2nnc(C3=NCCCN3)c2-c2ccccc2)cc1	> 100 µM	–	> 100 µM	> 100 µM	–	–	–	> 100 µM	–	> 100 µM	> 100 µM	–	> 100 µM	> 100 µM	> 100 µM	–
c1nc2cscc2c2cscc12	> 100 µM	–	> 100 µM	> 100 µM	–	–	–	> 100 µM	–	> 100 µM	> 100 µM	–	> 100 µM	> 100 µM	> 100 µM	–
S=c1[nH]c(=S)c2sc(=S)n(-c3ccccc3)c2[nH]1	> 100 µM	–	> 100 µM	> 100 µM	–	–	–	> 100 µM	–	> 100 µM	> 100 µM	–	> 100 µM	> 100 µM	> 100 µM	–
COc1ccc(/C=C\c2cc(OC)c(OC)c(OC)c2)cc1OC(=O)C(N)CCC(=O)O (centres undefined)	0.0415 µM	0.000597 µM	67.3 µM	> 100 µM	–	0.00299 µM	–	–	–	–	46.4 µM	0.000594 µM	> 100 µM	> 100 µM	> 59 µM	0.000393 µM
Cc1cccc(C)c1NC(=O)/C(Cl)=C(/Cl)C(=O)O	27.4 µM	–	43.7 µM	> 81.7 µM	–	31.5 µM	–	41.8 µM	–	29.4 µM	> 74.6 µM	–	14.9 µM	20.6 µM	35.1 µM	–
